{
  "source": "patent US20210318306A1",
  "about": "“Compositions for and Methods of Neutralizing Lipopolysaccharide Toxicity and Methods of Identifying the Same” (priority 2020, published 2021)",
  "system": "HEK-Blue hTLR4 cells",
  "assay": "IL-8 dose response in HEK-Blue hTLR4 cells with P.g. LPS 1 μg/ml and 3X-24X dilutions of simple solutions (Example 4)",
  "format": "cell-based, human",
  "protocol": "HEK-Blue hTLR4 cells (Invivogen, cat #hkb-htlr4) were cultured in a DMEM culture medium supplemented with 10% FBS and 1% penstrep at 37° C. with 5% CO2. LPS from Porphyromonas gingivalis (P.g. LPS; Invivogen, cat #tlrl-pglps and cat #tlrl-ppglps) activates TLR4 receptor and downstream inflammation in HEK-Blue hTLR4 cells. P.g. LPS is co-incubated with HEK-Blue hTLR4 cells in the absence or presence of the simple solutions. Standard and ultrapure P.g. LPS were both used due to ultrapure being a specific ligand for the TLR4 receptor while standard LPS is a ligand for both TLR2 and TLR4.\nThe simple solutions a) Zinc Oxide (ZnO), b) Zinc Citrate (ZnCitrate), c) Zinc Oxide+Zinc Citrate (Dual Zinc; DZ), d) Dual Zinc+Arginine (DZA, zinc oxide, zinc citrate and arginine), and e) L-Arginine (Arg) were diluted at different concentrations with culture medium.\n2) experiments using 3×, 6×, 12×, and 24× dilution fold of the simple solutions (see Table 6 below).\nHEK-Blue hTLR4 cells were plated in 96-well plates and grown until confluent at 37° C. and 5% CO2 in HEK-blue selection media (DMEM with 10% FBS, 1% penicillin-streptomycin, and antibiotics for HEK-blue selection (Invivogen, cat #hb-sel)). Cells were co-incubated overnight with varying concentrations of different zinc actives as well as arginine and stimulated with either 0.1 μg/mL standard P. gingivalis LPS or 1 μg/mL ultrapure P. gingivalis LPS. Cell supernatants were collected for human inflammation cytokine panels using Multiplex and ELISA analysis.\nMultiplex analysis was performed using the MILLIPLEX MAP Human Cytokine/Chemokine Magnetic Bead Panel—Immunology Multiplex Assay for IL-1, IL-6, IL-8, TNFα, and GM-CSF (Millipore Sigma, cat #HCYTOMAG-60K).\nIn order to understand the role of Arginine in the inhibition of LPS induced inflammation, a dose response experiment was performed using ultrapure P.g. LPS, which only specifically targets TLR4 receptor, in order to maximize the activation of NF-kB and expression of IL-8.\nThe testing samples were prepared as the stock simple solutions. […] The first serial dilution was made 3 times with water, a dilution factor simulating dilution of toothpastes while brushing. Additional serial dilutions were made by 2-fold of the first dilution to study dose response effect.",
  "key": {"[1]": {"details": "3X dilution of stock simple solution (Table 6) with P.g. LPS (1 μg/ml)"}, "[2]": {"details": "6X dilution of stock simple solution (Table 6) with P.g. LPS (1 μg/ml)"}, "[3]": {"details": "12X dilution of stock simple solution (Table 6) with P.g. LPS (1 μg/ml)"}, "[4]": {"details": "24X dilution of stock simple solution (Table 6) with P.g. LPS (1 μg/ml)"}},
  "note": "Where “and” joins values, the source holds several entries; their conditions need not be identical. Equal values may be shown once.",
  "data": [
    {"molecule": "N=C(N)NCCC[C@H](N)C(=O)O", "note": "[Arg, L-Arginine]", "values": [
      {"measurement": "IL-8 Concentration, Average", "setting": "[1]", "result": 236.6, "unit": "pg/mL"},
      {"measurement": "IL-8 Concentration, replicate", "setting": "[1]", "result": "248.5 pg/mL and 224.7 pg/mL"},
      {"measurement": "IL-8 Concentration, Average", "setting": "[2]", "result": 1480.7, "unit": "pg/mL"},
      {"measurement": "IL-8 Concentration, replicate", "setting": "[2]", "result": "1649.9 pg/mL and 1311.5 pg/mL"},
      {"measurement": "IL-8 Concentration, Average", "setting": "[3]", "result": 2903.3, "unit": "pg/mL"},
      {"measurement": "IL-8 Concentration, replicate", "setting": "[3]", "result": "2891.2 pg/mL and 2915.5 pg/mL"},
      {"measurement": "IL-8 Concentration, Average", "setting": "[4]", "result": 3020.6, "unit": "pg/mL"},
      {"measurement": "IL-8 Concentration, replicate", "setting": "[4]", "result": "3003.8 pg/mL and 3037.4 pg/mL"},
      {"measurement": "inhibition of IL-8 (in words)", "setting": "at 3 times dilution of the stock simple solution", "result": "strong inhibition"},
      {"measurement": "inhibition of IL-8 (in words)", "setting": "when dilution folds increase", "result": "lose the inhibition of IL-8 gradually"}
    ]}
  ]
}
